Like-named read-outs stand apart in the source and are kept apart here.
Experiments:
[1] = Cytotoxicity (XTT cell viability), BV-2; format: cell-based; details: mouse, BV-2 microglial cells, LPS/IFN-γ-stimulated, LPS-IFN-γ-induced cells, mean ± SEM (n = 6)
Experimental: (§1) Compounds 1–8 were screened for their inhibitory effects on nitric oxide production in LPS-IFN-γ activated RAW 264.7 macrophages and BV-2 microglial cells at a final concentration of 50 µM. […] A deprenylated furanoxanthone structure with ortho hydroxy group in ring B as in 7 might be important to enhance the inhibitory effect when compared to 6 and 8.
(§2) The iNOS inhibitory activity of the isolated compounds and respective cytotoxicity was determined using a previously described protocol. Briefly, BV-2 mouse microglial (25,000 cells/well) and RAW 264.7 mouse macrophage (100,000 cells/well) cell lines were seeded into 96-well plates in high glucose Dulbecco’s Modified Eagle’s Medium (DMEM, Gibco) containing 4 mM L-glutamine, 10% FBS, 2% HEPES, 1% penicillin/streptomycin, and 0.5% amphotericin B. After incubation for 24 h at 37 °C in a 5% CO2 humidified atmosphere, the cells were stimulated with 0.05% LPS (Sigma) and 0.025% interferon-γ (Roche Diagnostics, Mannheim, Germany) and treated with different concentrations (5–100 μM) of the tested compounds. The level of NO production in cell culture supernatants was determined using Griess reagent (Sigma) by photocolorimetric analysis after 16 h of incubation, using a Hidex Sense Microplate Reader (Hidex, Turku, Finland). Fifty microliters of XTT reagent (Sigma, Kit II) was then added into the same plates for cell viability measurement after 60 min incubation. L-NMMA (Alexis, Grünberg, Germany) 100 µM was used as the positive control, while 1% DMSO and digitonin (Roth, Karlsruhe, Germany) 400 µM were used as the vehicle and negative control, respectively. The assays were conducted in triplicates and repeated in two independent experiments. IC50 values were determined by graphical analysis using GraphPad Prism 7 (GraphPad Software, La Jolla, CA, USA).

[2] = system: HeLa S3 (human cervical carcinoma); experiment: MTT cytotoxic activity assay, HeLa S3; format: cell-based; details: 72 h, mean ± SEM of three replicates
Experimental: (§3) The cytotoxic activity of the isolated compounds was evaluated using the MTT viability assay with doxorubicin as the positive control and the results are presented in Table 2.
(§4) The MTT colorimetric method was performed to evaluate cytotoxic activity of the isolated compounds against human epidermoid carcinoma (KB; ATCC CCL17), human cervical carcinoma (HeLa S3; ATCC CCL2-2), human colon adenocarcinoma (HT-29; ATCC HTB-38), human breast adenocarcinoma (MCF-7; ATCC HTB-22), and human hepatocellular carcinoma (Hep G2; ATCC HB-8065) cell lines according to the previous method. The cancer cells were cultured in MEM containing 10% fetal bovine serum in the presence of 100 U/mL penicillin and 100 μg/mL streptomycin sulphate (Gibco, Rockville, MD, USA), seeded in a 96-well plate (3000 cells/well), and pre-incubated at 37 °C for 24 h in a 5% CO2 humidified atmosphere. The tested compounds with serial concentrations (0.3–100 μM) were added and incubated for a further 72 h in the same condition. At the end of treatment, 20 µL of MTT solution (5 mg/mL in PBS, Sigma, St. Louis, MI, USA) was added to each well and further incubated for 3 h. After centrifugation at 1400 rpm for 5 min at 4 °C, the supernatant was decanted and DMSO (100 µL/well) was added to allow formazan product solubilization, which was subsequently measured by a microplate reader (Tecan Trading AG, Switzerland) at wavelength 550 nm. Control cells were treated with 0.1% DMSO. Doxorubicin (tested concentrations: 0.01–3.0 μM, Sigma) was used as the positive control. The results are expressed as the mean values of three replicates for three independent experiments. IC50 values were determined by graphical analysis using SigmaPlot 10 (Systat Software Inc., San Jose, CA, USA), obtained by plotting the cell viability percentage versus sample concentration.

[3] = system: KB (human epidermoid carcinoma); experiment: MTT cytotoxic activity assay, KB; format: cell-based; details: 72 h, mean ± SEM of three replicates
Experimental: as §3, §4

[4] = system: MCF-7 (human breast adenocarcinoma); experiment: MTT cytotoxic activity assay, MCF-7; format: cell-based; details: MCF7, 72 h, mean ± SEM of three replicates
Experimental: as §3
(§5) The MTT colorimetric method was performed to evaluate cytotoxic activity of the isolated compounds against human epidermoid carcinoma (KB; ATCC CCL17), human cervical carcinoma (HeLa S3; ATCC CCL2-2), human colon adenocarcinoma (HT-29; ATCC HTB-38), human breast adenocarcinoma (MCF-7; ATCC HTB-22), and human hepatocellular carcinoma (Hep G2; ATCC HB-8065) cell lines according to the previous method. […] After centrifugation at 1400 rpm for 5 min at 4 °C, the supernatant was decanted and DMSO (100 µL/well) was added to allow formazan product solubilization, which was subsequently measured by a microplate reader (Tecan Trading AG, Switzerland) at wavelength 550 nm. […] The results are expressed as the mean values of three replicates for three independent experiments. IC50 values were determined by graphical analysis using SigmaPlot 10 (Systat Software Inc., San Jose, CA, USA), obtained by plotting the cell viability percentage versus sample concentration.

[5] = system: NO production in LPS-IFN-γ-induced BV-2 microglial cells; experiment: NO production inhibition assay (Griess), BV-2; format: cell-based, mouse; details: for IC50: Mus musculus, BV-2, LPS-IFN-γ-induced, 16 h, mean ± SEM (n = 6), read-out: IC50, iNOS (inhibition of NO production), BV-2; for suppression of NO production, BV-2: final concentration of 50 µM, preliminary screen; for IC50 of NO inhibition lower than the cytotoxic activity, BV-2: ratio cytotoxicity IC50 / NO inhibition IC50 in BV-2 cells
Experimental: as §1, §2

[6] = system: HT-29 (human colon adenocarcinoma); experiment: MTT cytotoxic activity assay, HT-29; format: cell-based; details: 72 h, mean ± SEM of three replicates
Experimental: as §3, §5

[7] = system: Hep G2 (human hepatocellular carcinoma); experiment: MTT cytotoxic activity assay, Hep G2; format: cell-based; details: HepG2, 72 h, mean ± SEM of three replicates
Experimental: as §3, §5

[8] = system: four cancer cells (KB, HeLa S3, MCF-7, and Hep G2); experiment: MTT cytotoxicity, four cancer cells stated together; format: cell-based; details: Homo sapiens; range over KB, HeLa S3, MCF-7, Hep G2; read-out: IC50 values against four cancer cells
Experimental: as §3, §5

[9] = system: KB (human epidermoid carcinoma); design: method as in PMID 30153471, PMID 33999337; details: MTT; results based on previous work; read-out: IC50 ± SEM, KB; cited from earlier work
[10] = system: four cancer cells (KB, HeLa S3, MCF-7, and Hep G2); details: HeLa S3, MCF-7, Hep G2, earlier studies, read-out: IC50 values against four cancer cells; cited from earlier work
[11] = system: HT-29 (human colon adenocarcinoma); design: method as in PMID 30153471, PMID 33999337; key to IC50 ± SEM, HT-29: IC50 ≤ 10 µM = good cytotoxicity; 10 µM < IC50 ≤ 30 µM = weak cytotoxicity; inactive (IC50 > 30 µM); details: MTT; results based on previous work; cited from earlier work
[12] = system: HeLa S3 (human cervical carcinoma); design: method as in PMID 30153471, PMID 33999337; details: MTT; results based on previous work; read-out: IC50 ± SEM, HeLa S3; cited from earlier work
[13] = system: MCF-7 (human breast adenocarcinoma); design: method as in PMID 30153471, PMID 33999337; details: MTT; results based on previous work; read-out: IC50 ± SEM, MCF-7; cited from earlier work
[14] = system: Hep G2 (human hepatocellular carcinoma); design: method as in PMID 30153471, PMID 33999337; details: MTT; results based on previous work; read-out: IC50 ± SEM, Hep G2; cited from earlier work

C[C@H]1Oc2c(c(O)c3c(=O)c4ccc(O)c(O)c4oc3c2CCC(C)(C)O)C1(C)C [Compound 4, gerontoxanthone C hydrate]
IC50 at 16 h [1]: 27.7 ± 6.4 µM
IC50 [2]: 5.6 ± 0.1 µM
IC50 [3]: 7.5 ± 0.8 µM
IC50 [4]: 5.7 ± 0.3 µM
IC50 [5]: 20 ± 4 µM
suppression of NO production, BV-2 [5]: over 70%
IC50 of NO inhibition lower than the cytotoxic activity, BV-2 [5]: 1.4 fold
IC50 [6]: 20.3 ± 0.6 µM
IC50 [7]: 6.3 ± 0.6 µM
IC50 [8]: 5.6 to 7.5 µM

C[C@@H]1Oc2cc(O)c3c(=O)c4ccc(O)c(O)c4oc3c2C1(C)C [Compound 7, 2-deprenylrheediaxanthone B]
IC50 at 16 h [1]: 31.7 ± 4.7 µM
IC50 [9]: 5.1 ± 0.4 µM
IC50 [10]: < 10 µM
IC50 ± SEM, HT-29 [11]: inactive
IC50 [12]: 6 ± 0.5 µM
IC50 [5]: 28.7 ± 2.3 µM
suppression of NO production, BV-2 [5]: over 70%
IC50 of NO inhibition lower than the cytotoxic activity, BV-2 [5]: 1.1 fold
IC50 [13]: 6.5 ± 0.2 µM
IC50 [14]: 10 ± 0.2 µM

Reference: PMC8587515, “Cytotoxic and Anti-Inflammatory Activities of Dihydroisocoumarin and Xanthone Derivatives from Garcinia picrorhiza” (Molecules, 2021)
